The subject of one test is Canavalia ensiformis. In words: (§1) Inhibition of jack beans alpha-mannosidase.
Another test relates to Cornu aspersum. In words: Inhibition of snail beta-mannosidase.
Test [1] can be described thus: Inhibition of bovine liver beta-glucosidase. On the set-up: species or system Bos taurus.
The nature of test [2]: (§2) Inhibition of yeast alpha-glucosidase. On the set-up: species or system Saccharomyces cerevisiae.
The test system of a further test is Penicillium decumbens. In words: Inhibition of Penicillium decumbens naringinase.
Test [3] has as its target Alpha-galactosidase (Coffea arabica) (UniProt Q5DUH8). The experiment in a line: Inhibition of green coffee beans alpha-galactosidase.
Test [4] is described as follows: as §1. On the set-up: species or system Canavalia ensiformis.
Test [5] deals with T1, Beta-galactosidase (Bos taurus) (UniProt Q58D55).
T1 sequence (whole entry): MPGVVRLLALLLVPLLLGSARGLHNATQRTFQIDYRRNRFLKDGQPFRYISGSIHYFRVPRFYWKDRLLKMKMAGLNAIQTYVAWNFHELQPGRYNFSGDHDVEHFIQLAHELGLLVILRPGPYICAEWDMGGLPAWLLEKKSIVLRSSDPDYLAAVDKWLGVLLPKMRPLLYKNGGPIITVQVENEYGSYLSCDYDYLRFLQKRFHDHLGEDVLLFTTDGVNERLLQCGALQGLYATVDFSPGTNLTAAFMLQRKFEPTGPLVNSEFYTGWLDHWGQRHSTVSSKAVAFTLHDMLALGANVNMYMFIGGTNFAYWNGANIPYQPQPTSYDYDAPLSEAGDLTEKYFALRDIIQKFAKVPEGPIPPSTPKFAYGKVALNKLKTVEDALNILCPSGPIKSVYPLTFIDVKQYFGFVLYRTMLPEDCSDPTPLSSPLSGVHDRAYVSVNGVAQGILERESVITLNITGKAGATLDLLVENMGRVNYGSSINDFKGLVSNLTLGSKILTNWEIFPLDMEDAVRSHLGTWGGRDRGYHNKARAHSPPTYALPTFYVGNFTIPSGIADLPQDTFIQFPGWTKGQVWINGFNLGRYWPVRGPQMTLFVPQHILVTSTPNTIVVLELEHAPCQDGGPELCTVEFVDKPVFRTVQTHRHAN
In words: Inhibition of bovine liver beta-galactosidase.

Test [6] deals with Saccharomyces cerevisiae. The description is as §2.
Test [7] has as its system Saccharomyces cerevisiae. In words: Inhibition of yeast isomaltase.
The target in test [8] is T2, Uncharacterized protein (Sus scrofa) (UniProt I3LIR5).
T2 sequence (whole entry): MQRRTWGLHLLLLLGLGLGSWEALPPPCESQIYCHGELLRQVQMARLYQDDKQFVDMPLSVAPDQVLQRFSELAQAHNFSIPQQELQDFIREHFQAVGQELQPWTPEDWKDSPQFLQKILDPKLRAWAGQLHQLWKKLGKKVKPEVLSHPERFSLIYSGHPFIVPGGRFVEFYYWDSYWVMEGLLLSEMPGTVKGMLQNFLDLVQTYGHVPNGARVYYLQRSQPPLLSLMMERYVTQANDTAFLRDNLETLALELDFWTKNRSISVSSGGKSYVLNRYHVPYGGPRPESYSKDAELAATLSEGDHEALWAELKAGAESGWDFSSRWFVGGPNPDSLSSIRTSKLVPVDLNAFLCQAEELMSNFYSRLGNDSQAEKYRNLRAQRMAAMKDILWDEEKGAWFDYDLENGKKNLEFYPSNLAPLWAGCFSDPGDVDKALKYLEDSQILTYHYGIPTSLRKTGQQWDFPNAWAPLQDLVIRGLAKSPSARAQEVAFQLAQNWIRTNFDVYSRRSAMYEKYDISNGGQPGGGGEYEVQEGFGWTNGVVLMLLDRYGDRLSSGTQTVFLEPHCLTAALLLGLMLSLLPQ
The experiment in a line: Inhibition of pig kidney trehalase.

For another test, the system named is Prunus dulcis. The experiment in a line: Inhibition of almonds beta-glucosidase.
The subject of another test is Aspergillus niger. The experiment in a line: Inhibition of Aspergillus niger amyloglucosidase.

7 compounds from ChEMBL document CHEMBL1145620, “Synthesis and evaluation of sulfamide-type indolizidines as glycosidase inhibitors” (Bioorg Med Chem Lett, 2008) can be followed below.

Activity calls are given as the source filed them. The calls are words filed in the database; no cut-off is given here.

Alpha-galactosidase (Coffea arabica), sequence (Q5DUH8 as listed by the source): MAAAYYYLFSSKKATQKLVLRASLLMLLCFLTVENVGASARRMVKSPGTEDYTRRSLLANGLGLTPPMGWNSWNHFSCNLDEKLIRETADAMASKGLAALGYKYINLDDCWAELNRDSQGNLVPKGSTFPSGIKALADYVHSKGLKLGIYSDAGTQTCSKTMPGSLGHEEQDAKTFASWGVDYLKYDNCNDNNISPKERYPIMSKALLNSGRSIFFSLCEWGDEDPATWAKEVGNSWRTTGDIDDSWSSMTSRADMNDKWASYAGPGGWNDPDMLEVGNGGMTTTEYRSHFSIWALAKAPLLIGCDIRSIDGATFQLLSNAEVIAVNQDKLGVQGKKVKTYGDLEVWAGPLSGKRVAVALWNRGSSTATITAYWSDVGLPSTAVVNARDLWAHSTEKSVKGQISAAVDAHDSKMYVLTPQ

As for `CCCC/N=C1/OC[C@@H]2[C@@H](O)[C@H](O)[C@@H](O)[C@@H](O)N12`, the result in the test on Canavalia ensiformis and with Cornu aspersum was Active. In addition, the affinity in test [1] corresponds to a Ki of 2.2 µM.

In the case of `O[C@@H]1[C@@H](O)[C@@H](O)N2C(=S)NC[C@@H]2[C@H]1O`, the result with Canavalia ensiformis and with Cornu aspersum was Active. Also, affinity in [2] was put at a Ki of 4200 µM.

Consider `O=S1(=O)NC[C@@H]2[C@@H](O)[C@H](O)[C@@H](O)C(O)N21` (stereo partly specified), for which the result (in the test on Penicillium decumbens; in [3]; in the test with Cornu aspersum; in test [5]; with Saccharomyces cerevisiae [6]; in the test with Saccharomyces cerevisiae [7]) was inactive. For the same compound, the outcome (in test [8]; in the test with Prunus dulcis; in the test on Aspergillus niger) was inactive. In addition, in test [4], the affinity, expressed as Ki, was 320 µM.

For the compound `O=S1(=O)NC[C@@H]2[C@@H](O)[C@H](O)[C@H](O)C(O)N21` (stereo partly specified), in test [4], the Ki – broadly, the dissociation constant of the complex between target and ligand, obtained from inhibition or displacement – came to 150 µM.

Regarding `O=C1NC[C@@H]2[C@@H](O)[C@H](O)[C@@H](O)[C@@H](O)N12`, the result in the test with Canavalia ensiformis and with Cornu aspersum was Active. The Ki in test [2] came to 5700 µM.

Consider `O[C@@H]1[C@@H](O)[C@@H](O)N2C(=S)OC[C@@H]2[C@H]1O`, for which the outcome with Canavalia ensiformis and in the test on Cornu aspersum was Active. In addition, the affinity in test [2] corresponds to a Ki of 2.2 µM.

For the compound `O=C1OC[C@@H]2[C@@H](O)[C@H](O)[C@@H](O)[C@@H](O)N12`, the outcome with Canavalia ensiformis and with Cornu aspersum was Active. In [2], the affinity corresponds to a Ki of 40 µM.
